Results from patent US10441568B2, “Nitroxide radicals for the treatment of diseases of the respiratory tract” (priority 2015, dated 2019).

Experiments:
[1] = system: ovalbumin-induced murine model of asthma; experiment: Lung resistance / airway hyper-responsiveness to methacholine in OVA asthma model; format: in vivo, BALB/c mice
Protocol: (§1) All experimental procedures were carried out in accordance with the NIH Guidelines for the Care and Use of Laboratory Animals. Specific pathogen-free (SPF) male BALB/c mice (6-7 weeks of age, 18-22 grams), routinely screened serologically for relevant respiratory pathogens, were maintained in an animal housing facility for 1 week before use and given access to food and water ad libitum. Animals were randomly assigned to the indicated experimental groups, and sensitized with two intraperitoneal (IP) injections (20 μg ovalbumin (OVA) emulsified in 2 mg aluminum hydroxide (an adjuvant) in 200 μl phosphate buffer saline (PBS), pH 7.4), on days 1 and 10.
(§2) After another week, the animals were challenged by exposure to ovalbumin (OVA) aerosol (1%, w/v, in PBS) for 30 minutes each day on days 17, 18 and 19, in order to elicit an inflammatory reaction in the lungs characterized by airway hyper-responsiveness (AHR), an influx of inflammatory cells (particularly eosinophils), and increased pulmonary levels of various cytokines and transforming growth factors, protein nitration and lipid peroxidation.
The features of allergic inflammation typically reached their peak a day or two after the final exposure. Mice were then subjected to one of the following treatments: (i) sham-sensitization plus challenge with PBS; (ii) positive control-sensitization plus challenge with OVA; (iii) sensitization plus challenge with OVA and various indicated treatments (e.g., with nitroxide or dexamethasone), including different modes (oral, IP, intranasal, inhalation), time windows (sensitization stage, challenge stage, both stages and after the last challenge), and doses of nitroxide administration.
One day after the final challenge, respiratory activity and airway hyper-responsiveness (AHR) of experimental animals were evaluated. Whole body plethysmographs for enhanced pause (Penh) measurements are often used for assessment of AHR. However, critics have questioned the validity of Penh measurements, which supposedly measure airway obstruction of live non-sedated mice, stating that it is likely to measure the distress of the animal rather than actual obstruction. […] In brief, mice were sedated with an intraperitoneal (IP) injection of xylazine hydrochloride and anaesthetized with IP injection of pentobarbital. Subsequently, the animals were tracheostomized using an 18 gauge cannula, ventilated with a FlexiVent™ apparatus (SCIREQ), and muscle paralysis was induced with pancuronium bromide. The mice were ventilated in a quasi-sinusoidal fashion with the following settings: a tidal volume of 10 ml/kg, maximum inflation pressure of […] (30 cm H2O), a positive end expiratory pressure (PEEP) of 3 millibar and a frequency of 150 per minute. Following an equilibration period of 3 minutes of tidal ventilation, two lung inflations to a transrespiratory pressure of 2.5 millibar were performed and baseline measurements were taken. Airway hyper-responsiveness (AHR) was determined by aerosolizing increasing concentrations of methacholine. After baseline determination of airway resistance, mice were challenged with 0 to 64 mg/mL methacholine nebulized directly into the ventilatory circuit using an AeroNeb™ Lab nebulizer system (SCIREQ). Two models of respiratory mechanics were used to assess lung resistance: a linear 1st-order single compartment model and a constant-phase model. All data points were collected with FlexiVent™ software (SCIREQ). […]

IFN-γ = IFN-γ level in OVA asthma model; format: in vivo, BALB/c mice; details: for IFN-γ level: lung tissue (table title)
Protocol: as §1, §2
Bronchoalveolar lavage (BAL) fluid (also referred to herein as “BALf”) and bronchial submucosal inflammation are characteristic features of asthma. Mice were euthanized with an overdose of 50 mg/kg pentobarbital and ice-cold phosphate buffer saline (PBS) (0.6 ml) was instilled into the lungs. BAL fluid was obtained by three aspirations via tracheal cannulation, centrifuged, and the supernatant collected and stored at −70° C. Cell pellets were re-suspended in PBS and 100 μl aliquots placed onto slides and centrifuged (200 g, 4° C., 10 minutes) in a cytospin machine. Induction of oxidative stress was evaluated using a 2′,7′-dichlorofluorescein fluorescence assay, and total IgE, IgG2a, panel of cytokines, transforming growth factors, collagen, protein nitration and lipid peroxidation were measured using commercial kits according to the manufacturer's recommendations. A Sircol™ collagen assay kit was obtained from Biocolor Life Sciences Assays, a protein nitration assay kit was obtained from Abcam, and other assay kits were obtained from PeproTech Asia.
The efficacy of oral administration of 3-CP (1 weight percent in chow) during the sensitization period and/or challenge period was then compared to IP injection (˜300 mg/kg, 0.5 hour before the OVA challenge) or intranasal instillation (˜150 mg/kg, 0.5 hour before the OVA and 6 hours later) of 3-CP, as well as to dexamethasone treatment (1 mg/kg, 3 daily IP injections, 0.5 hour prior to the challenge with OVA aerosol).
In order to assess the effect of 3-CP on inflammatory signaling pathways, […] to procedures described hereinabove, upon oral, intranasal or IP administration of 3-CP.

[2] = oral, 1 weight percent in chow, FIG. 3

`CC1(C)CC(C(N)=O)C(C)(C)N1[O]` (stereo not drawn) [3-CP, 3-Carbamoyl-2,2,5,5-tetramethyl-pyrrolidin-1-oxyl] was tested, and the “lung resistance, oral 3-CP in both periods compared with other regimens” value ([1]; oral 1 weight percent in chow during sensitization and challenge periods, FIG. 6) was “more effective than IP injection or intranasal instillation of 3-CP, oral administration of 3-CP during the sensitization period or challenge period alone, or treatment with dexamethasone”, the “effect on methacholine-induced increase in lung resistance” value [1, 2] was “suppressed methacholine-induced increase in lung resistance” and the “lung resistance suppression, 3-CP compared with TPL” value [1, 2] was “considerably more effective than TPL”. For the same compound, the IFN-γ level (IFN-γ; OVA IP-C: 3-CP intraperitoneal during challenge) was 5.17 ± 0.19 ng/mg, the IFN-γ level (IFN-γ; OVA oral-C: 3-CP oral during challenge) was 5.32 ± 0.38 ng/mg and the IFN-γ level (IFN-γ; OVA oral-S&C: 3-CP oral during sensitization and challenge) was 5.60 ± 0.22 ng/mg. The IFN-γ level (IFN-γ; OVA oral-S: 3-CP oral during sensitization) was 3.78 ± 0.27 ng/mg, the “effect on OVA-induced decrease in the level of INF-γ” value (IFN-γ; lung tissue, FIG. 7C and Table 1) was “inhibited” and the “modulating IFN-γ level, oral compared with IP 3-CP” value (IFN-γ; oral administration vs IP injection) was “consistently more effective than IP injection of 3-CP”.
